Source: patent US20060258581A1, “Methods and composition for derepressions of IAP-inhibited caspase” (priority 2001, published 2006)
Read-outs that look alike come from different tables or passages of the source. Where a SMILES comes first, the peptide text is derived from it. Where no end group is shown, it is not given here. [ ]: non-standard residue; d: D form. The star is where a group is joined. Phe(4-Cl) = N[C@@H](Cc1ccc(Cl)cc1)C(=O)O; 2Nal = N[C@@H](Cc1ccc2ccccc2c1)C(=O)O; d2Nal = N[C@H](Cc1ccc2ccccc2c1)C(=O)O; Fmoc = O=C(OCC1c2ccccc2-c2ccccc21)*; 2Thi = N[C@@H](Cc1cccs1)C(=O)O

What was measured:
XIAP-inhibited caspase-3 = biological target: T1, XIAP-inhibited caspase-3 (Homo sapiens, UniProt P98170); assay: IAP derepression assay: Ac-DEVD-AFC hydrolysis by caspase-3 in the presence of GST-XIAP; type: biochemical; details: for Activity* (relative caspase-3 activity: Vmax in the presence of compound / Vmax of controls having caspase-3 and XIAP): XIAP derepression assay; for reversing XIAP-mediated suppression of caspase 3: 50 μg/ml, full length XIAP
T1 construct: in a caspase derepression assay using full length XIAP; made in house; host or cells: bacteria
T1 sequence (P98170 whole entry): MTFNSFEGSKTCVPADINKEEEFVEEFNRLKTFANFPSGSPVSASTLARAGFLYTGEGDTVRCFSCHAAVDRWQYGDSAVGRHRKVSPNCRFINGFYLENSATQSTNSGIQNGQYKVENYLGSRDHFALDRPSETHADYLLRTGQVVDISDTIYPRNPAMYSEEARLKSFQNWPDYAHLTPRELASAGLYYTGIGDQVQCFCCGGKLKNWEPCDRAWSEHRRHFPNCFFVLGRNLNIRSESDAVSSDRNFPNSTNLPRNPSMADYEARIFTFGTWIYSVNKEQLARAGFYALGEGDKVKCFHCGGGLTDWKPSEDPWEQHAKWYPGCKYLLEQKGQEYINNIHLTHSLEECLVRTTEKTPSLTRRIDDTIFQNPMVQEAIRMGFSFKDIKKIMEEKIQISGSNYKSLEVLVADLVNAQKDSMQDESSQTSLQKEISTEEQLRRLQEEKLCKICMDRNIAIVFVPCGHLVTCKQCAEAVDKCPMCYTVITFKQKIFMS
Protocol: The ratio of Vmax for hydrolysis of Ac-DEVD-AFC in the presence and absence of the candidate mixture was calculated and used to identify those that contain an agent that derepresses an IAP-inhibited caspase.
Each mixture was aliquoted in a 25 microliter volume and in duplicate to a well of a 96 well microtiter plate. […] Fluorescence of liberated AFC was immediately detected from each well for 30 minutes at 30 second intervals. The Vmax for hydrolysis of AC-DEVD-AFC from each well was measured using the softmax software package.

Jurkat leukemia cells = assay: Jurkat leukemia cell death, Annexin V/propidium iodide flow cytometry; type: cell-based; details: for cells killed: one day treatment
Protocol: The following assay was used to test the ability of individual compounds from the TPI 1396 and TPI 1391 libraries to induce apoptosis of cultured tumor cell lines. Each of the compounds listed in Table IX was individually added to Jurkat leukemia cells (6.25×10^5 cells/mL) in RPMI containing 2.5% FBS at various concentrations for 20 hours. After incubation, cells were washed and stained with FITC-conjugated Annexin V antibody and propidium iodide (Biovision; Mountain View, Calif.). Cells were incubated for 20 minutes at room temperature in the dark and fluorescence was measured by flow cytometry (FACScan, Immunocytometry system; Becton-Dickinson; San Jose, Calif.). Cells staining positive for Annexin V were deemed non-viable.
The TPI I396-34 and TPI 1391-28 compounds were further tested as set forth below.

[1] = system: normal bone marrow mononuclear cells; assay: Normal bone marrow mononuclear cells versus Jurkat, Annexin V, 20 hours; type: cell-based; details: 5 μM
Protocol: After incubation, cells were washed, stained with FITC-conjugated Annexin V antibody and propidium iodide, and fluorescence measured by flow cytometry as described above.

full length XIAP = full length XIAP (Homo sapiens, UniProt P98170); assay: Potency of IAP antagonists in vitro (Table VIII; caspase derepression / SMAC competition with full length XIAP); details: for Relative Potency (fold versus SMAC peptide): SMAC AVPI tetrapeptide = 1.0; for EC50: amount of compound necessary to restore caspase-3 activity to 50% of Vmax
Sequence of full length XIAP (P98170 whole entry): as above

XIAP = XIAP (Homo sapiens, UniProt P98170); assay: SMAC binding/competition assay: biotinylated SMAC 7-mer on NeutrAvidin plates, GST-XIAP detected by anti-GST; details: in words
Sequence of XIAP (P98170 whole entry): as above
Protocol: Peptide compounds containing unnatural amino acids in the 792 series, 792-33 and 792-35 (see FIG. 12 and 20 and Example XI), and an active compound in the TPI 1332 series, TPI 1332-69, were tested for binding activity in the SMAC binding assay as described above in Example X. For this assay, biotinylated SMAC 7-mer peptide (50 ng) was bound to 96 well plates coated with NeutrAvidin (Pierce, Rockford, Ill.) at 1 mg/ml in 100 μl per well of 50 mM HEPES pH 7.4, 100 mM NaCl 1 mM EDTA, 10% sucrose, 0.1% CHAPS, 10 mM DTT.

[2] = system: ALVA31 prostate cancer cells; assay: ALVA31 prostate cancer cell viability (XTT dye-reduction, trypan blue); type: cell-based; details: 24 hrs
Protocol: The in vivo effects of TPI 792-33 or TPI 792-35, either individually or in combination with the cytotoxic anticancer drug VP-16 (etoposide), on derepression of XIAP-inhibited caspase and viability of ALVA31 cells was determined as follows. ALVA31 prostate cancer cells were seeded onto 96 well plates (10^4 cells/well) in 100 μL RPMI containing 2.5% fetal bovine serum (FBS). […] After another 24 hrs-incubation, cell viability was measured by the XTT dye-reduction assay (Roche, Molecular Biochemicals; Indianapolis, Ind.) and trypan blue dye exclusion assay.

Molecule	% nonviable cells (Jurkat leukemia cells; 1 µM) [%]	% nonviable cells (Jurkat leukemia cells; 10 µM) [%]	% nonviable cells (Jurkat leukemia cells; 25 µM) [%]	% nonviable cells (Jurkat leukemia cells; 50 µM) [%]	LC (lowest concentration with a ratio of 2 or higher in the derepression assay) (XIAP-inhibited caspase-3; tested at 0.4, 2, 10 and 50) [µg/mL]	also measured
COc1ccc(CCN(CCCC[C@@H](CN(C(=O)Nc2ccccc2)[C@@H](CNC(=O)Nc2ccccc2)CC2CCCCC2)N(C)C(=O)Nc2ccccc2)C(=O)Nc2ccccc2)cc1 [TPI 1396-25]						Activity* (relative caspase-3 activity: Vmax in the presence of compound / Vmax of controls having caspase-3 and XIAP) (XIAP-inhibited caspase-3): 1.6
(L-Ala)-(D-Trp)-(L-Trp)-(L-ThiAla) (A[dW]W[2Thi]) [TPI 1332-47]						reversing XIAP-mediated suppression of caspase 3 (XIAP-inhibited caspase-3): Active
CC(C)C[C@@H]1CN([C@H](CNCc2ccccc2)Cc2ccc3ccccc3c2)C(=O)C(=O)N1CCc1cccc(C(F)(F)F)c1 [TPI 1391-28]	19	55	87	91		cells killed (Jurkat leukemia cells; 5 μM): about 45%; cells killed (Jurkat leukemia cells; 8 μM): ~80%; EC50 (Jurkat leukemia cells; one-day exposure, read-out: EC50 for killing Jurkat leukemia cells): ~6.5 µM; toxicity to normal bone marrow cells [1]: little toxicity; Relative Potency (fold versus SMAC peptide) (full length XIAP): 5; EC50 (full length XIAP): 25.1 µM
(L-ThiAla)-(Lys-εFmoc)-(D-Nal)-(Lys-εFmoc) ([2Thi]K(Fmoc)[d2Nal]K(Fmoc)) [TPI 792-19]					2	
(D-Nal)-(L-Nal)-(L-pClPhe)-(Lys-εFmoc) ([d2Nal][2Nal][Phe(4-Cl)]K(Fmoc)) [TPI 792-15]					2	
(L-Ala)-(L-Trp)-(L-Trp)-(L-ThiAla) (AWW[2Thi]) [TPI 1332-1]						reversing XIAP-mediated suppression of caspase 3 (XIAP-inhibited caspase-3): Active
CCCCCCCN1C(=O)C(=O)N([C@H](CCCC)CNCc2ccccc2)C[C@@H]1Cc1ccc2ccccc2c1 [TPI 1391-21]	16	44	91	94		Relative Potency (fold versus SMAC peptide) (full length XIAP): 3.7; EC50 (full length XIAP): 33.6 µM
COc1ccc(CCN(C(=O)Nc2ccccc2)[C@H](Cc2ccccc2)CN(C(=O)Nc2ccccc2)[C@@H](CNC(=O)Nc2ccccc2)CC2CCCCC2)cc1 [TPI 1396-31]						Activity* (relative caspase-3 activity: Vmax in the presence of compound / Vmax of controls having caspase-3 and XIAP) (XIAP-inhibited caspase-3): 1.3
(D-Nal)-(Lys-εFmoc)-(L-pClPhe)-(Lys-εFmoc) ([d2Nal]K(Fmoc)[Phe(4-Cl)]K(Fmoc)) [TPI 792-3]					2	
CCCC[C@H](CNCc1ccccc1)N1C[C@@H](CC(C)C)N(CC2CCC(C(C)(C)C)CC2)C(=O)C1=O (stereo partly drawn) [TPI 1391-17]	13	45	88	91		% nonviable cells (Jurkat leukemia cells; 5 µM): 25%
N[C@@H](Cc1cccs1)C(=O)N[C@@H](Cc1ccc2ccccc2c1)C(=O)N[C@@H](Cc1ccc(Cl)cc1)C(=O)N[C@@H](CCCCNC(=O)OCC1c2ccccc2-c2ccccc21)C(=O)O [TPI 792-33, L-3-(2-thienyl)-alanyl-L-(2-naphthyl)-alanyl-L-p-chloro-phenylalanyl-L-(e-fluorenylmethyloxycarbonyl)-lysine] (H-[2Thi][2Nal][Phe(4-Cl)]K(Fmoc)-OH)					0.4	LC (lowest concentration with a ratio of 2 or higher in the derepression assay) (XIAP-inhibited caspase-3): 0.4 micrograms per milliliter; activity in the caspase derepression assay using full length XIAP (XIAP-inhibited caspase-3; in words): activity; competition with XIAP binding to the SMAC peptide (SMAC competition assay) (XIAP): activity; cell viability, compound alone ([2]; peptides 40 μM, VP-16 100 μM): reduced viability of these prostate cancer cells by nearly half; tumor cell killing, combination with VP-16 ([2]; peptide 40 μM with VP-16 100 μM): more potent tumor cell killing compared to VP-16 alone; Relative Potency (fold versus SMAC peptide) (full length XIAP): 5.2
CCCC[C@@H](CNCc1ccccc1)N1C[C@@H](CC(C)C)N(CC(C)c2ccc(CC(C)C)cc2)C(=O)C1=O (stereo partly drawn) [TPI 1391-1]	18	20	69	91		
